Test results from patent publication US6274715A, “Tricyclic erythromycin derivatives” (priority 1997, dated 2001).
Converted amounts (≈) assume the structure as drawn.

What was measured:
Format in all cases: cell-based
[1] = tested on: STAPHYLOCOCCUS AUREUS CMX 553; assay: In vitro antibacterial activity, MIC, BHI agar dilution; conditions: S. aureus CMX 553, unit assumed
[2] = tested on: MYCOBACTERIUM SMEGMATIS ATCC 114; assay: as above; conditions: M. smegmatis ATCC 114, unit assumed
[3] = tested on: STAPHYLOCOCCUS EPIDERMIDIS 3519; conditions: S. epidermidis 3519; BHI agar; unit assumed
ESCHERICHIA COLI KNK 437 = conditions: E. coli KNK 437; BHI agar; unit assumed
[4] = tested on: PSEUDOMONAS AERUGINOSA K799/WT; assay: In vitro antibacterial activity, MIC, BHI agar dilution; conditions: P. aeruginosa K799/WT, unit assumed
[5] = tested on: PSEUDOMONAS AERUGINOSA DPHD-2862; assay: as above; conditions: P. aeruginosa DPHD-2862, unit assumed
STR[…] 508 = assay: as above; conditions: S. agalactiae CMX 508, unit assumed
How it was run: (§1)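 Agar dilution in BHI: plates inoculated with 1:100 dilutions of organisms (1:10 for Micrococcus and Streptococcus), incubated 20-24 h at 35-37° C, then inspected for the lowest inhibitory concentration against a drug-free growth control.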

M[…] ATCC 9341 = assay: as above; conditions: M. luteus ATCC 9341, unit assumed
How it was run: as §1

EN[…] ATCC 8043 = assay: as above; conditions: E. faecium ATCC 8043, unit assumed
How it was run: as §1

M[…] ATCC 4698 = assay: as above; conditions: M. luteus ATCC 4698, unit assumed
How it was run: as §1

[6] = tested on: STREPTOCOCCUS PYOGENES 930; assay: as above; conditions: S. pyogenes 930, unit assumed
[7] = tested on: ENTEROBACTER AEROGENES ATCC 13048; assay: as above; conditions: E. aerogenes ATCC 13048, unit assumed
[8] = tested on: PSEUDOMONAS AERUGINOSA BMH10; assay: as above; conditions: P. aeruginosa BMH10, unit assumed
[9] = tested on: STREPTOCOCCUS PYOGENES PIU 2548; assay: as above; conditions: S. pyogenes PIU 2548, unit assumed
[10] = tested on: STAPHYLOCOCCUS AUREUS A5177; assay: as above; conditions: S. aureus A5177, unit assumed
[11] = tested on: STREPTOCOCCUS BOVIS A-5169; assay: as above; conditions: S. bovis A-5169, unit assumed
ESCHERICHIA COLI H560 = assay: as above; conditions: E. coli H560, unit assumed
[12] = tested on: PSEUDOMONAS AERUGINOSA K799/61; assay: as above; conditions: P. aeruginosa K799/61, unit assumed
ESCHERICHIA COLI DC-2 = assay: as above; conditions: E. coli DC-2, unit assumed
[13] = tested on: STAPHYLOCOCCUS AUREUS ATCC 6538P; assay: as above; conditions: S. aureus ATCC 6538P, 35-37° C., 20 to 24 hours, unit assumed
[14] = tested on: STAPHYLOCOCCUS AUREUS 1775; assay: as above; conditions: S. aureus 1775, unit assumed
[15] = tested on: KLEBSIELLA PNEUMONIAE ATCC 8045; assay: as above; conditions: K. pneumoniae ATCC 8045, unit assumed
[16] = tested on: PSEUDOMONAS AERUGINOSA 5007; assay: as above; conditions: P. aeruginosa 5007, unit assumed
[17] = tested on: STAPHYLOCOCCUS AUREUS A-5278; assay: as above; conditions: S. aureus A-5278, unit assumed
[18] = tested on: PROVIDENCIA STUARTII CMX 640; conditions: P. stuartii CMX 640; BHI agar; unit assumed
[19] = tested on: PSEUDOMONAS AERUGINOSA DPHD-5263; assay: In vitro antibacterial activity, MIC, BHI agar dilution; conditions: P. aeruginosa DPHD-5263, unit assumed
CANDIDA ALBICANS CCH 442 = assay: as above; conditions: C. albicans CCH 442, unit assumed
PSEUDOMONAS CEPACIA 296I = assay: as above; conditions: P. cepacia 296I, unit assumed
[20] = tested on: STREPTOCOCCUS PYOGENES EES61; assay: as above; conditions: S. pyogenes EES61, unit assumed
ESCHERICHIA COLI SS = assay: as above; conditions: E. coli SS, unit assumed
[21] = tested on: STAPHYLOCOCCUS AUREUS CMX 642A; assay: as above; conditions: S. aureus CMX 642A, unit assumed
ESCHERICHIA COLI JUHL = conditions: E. coli JUHL; BHI agar; unit assumed
[22] = tested on: STAPHYLOCOCCUS AUREUS NCTC10649M; assay: In vitro antibacterial activity, MIC, BHI agar dilution; conditions: S. aureus NCTC10649M, unit assumed

SMILES	MIC [1]	MIC [2]	MIC [3]	MIC (ESCHERICHIA COLI KNK 437)	MIC [4]	MIC [5]	MIC (STR[…] 508)	MIC (M[…] ATCC 9341)	MIC (EN[…] ATCC 8043)	MIC (M[…] ATCC 4698)	MIC [6]	MIC [7]	MIC [8]	MIC [9]	MIC [10]	MIC [11]	MIC (ESCHERICHIA COLI H560)	MIC [12]	MIC (ESCHERICHIA COLI DC-2)	MIC [13]	other results
CC[C@H]1OC(=O)[C@H](C)C(=O)[C@H](C)[C@@H](O[C@@H]2O[C@H](C)C[C@H](N(C)C)[C@H]2O)[C@](C)(OC)C[C@@H](C)C2=NCC(COC(=O)c3ccc(Cl)cc3)N3C(=O)O[C@@]1(C)[C@H]3[C@H]2C (stereo partly drawn) [Example 141]	0.1 µg/mL (≈ 0.124 µM)	0.2 µg/mL (≈ 0.248 µM)	0.1 µg/mL (≈ 0.124 µM)	50 µg/mL (≈ 62 µM)	> 100 µg/mL	> 100 µg/mL	0.02 µg/mL (≈ 0.0248 µM)	0.01 µg/mL (≈ 0.0124 µM)	0.02 µg/mL (≈ 0.0248 µM)	0.1 µg/mL (≈ 0.124 µM)	50 µg/mL (≈ 62 µM)	> 100 µg/mL	100 µg/mL (≈ 124 µM)	0.2 µg/mL (≈ 0.248 µM)	0.1 µg/mL (≈ 0.124 µM)	≤ 0.005 µg/mL	12.5 µg/mL (≈ 15.5 µM)	1.56 µg/mL (≈ 1.93 µM)	50 µg/mL (≈ 62 µM)	0.1 µg/mL (≈ 0.124 µM)	MIC [14]: 50 µg/mL (≈ 62 µM); MIC [15]: 100 µg/mL (≈ 124 µM); MIC [16]: > 100 µg/mL; MIC [17]: 50 µg/mL (≈ 62 µM); MIC [18]: > 100 µg/mL; MIC [19]: > 100 µg/mL; MIC (CANDIDA ALBICANS CCH 442): > 100 µg/mL; MIC (PSEUDOMONAS CEPACIA 296I): 25 µg/mL (≈ 31 µM); MIC [20]: ≤ 0.005 µg/mL; MIC (ESCHERICHIA COLI SS): 0.78 µg/mL (≈ 0.967 µM); MIC [21]: 0.1 µg/mL (≈ 0.124 µM); MIC (ESCHERICHIA COLI JUHL): 50 µg/mL (≈ 62 µM); MIC [22]: 0.1 µg/mL (≈ 0.124 µM)
CC[C@H]1OC(=O)[C@H](C)C(=O)[C@H](C)[C@@H](O[C@@H]2O[C@H](C)C[C@H](N(C)C)[C@H]2O)[C@](C)(OC)C[C@@H](C)C2=NCC(COC(=O)c3ccc4ccccc4n3)N3C(=O)O[C@@]1(C)[C@H]3[C@H]2C (stereo partly drawn) [Example 142]	0.2 µg/mL (≈ 0.243 µM)	1.56 µg/mL (≈ 1.9 µM)	0.2 µg/mL (≈ 0.243 µM)	100 µg/mL (≈ 122 µM)	> 100 µg/mL	> 100 µg/mL	0.01 µg/mL (≈ 0.0122 µM)	0.02 µg/mL (≈ 0.0243 µM)	0.1 µg/mL (≈ 0.122 µM)	0.1 µg/mL (≈ 0.122 µM)	> 100 µg/mL	> 100 µg/mL	> 100 µg/mL	0.39 µg/mL (≈ 0.474 µM)	0.2 µg/mL (≈ 0.243 µM)	0.01 µg/mL (≈ 0.0122 µM)	25 µg/mL (≈ 30.4 µM)	1.56 µg/mL (≈ 1.9 µM)	25 µg/mL (≈ 30.4 µM)	0.2 µg/mL (≈ 0.243 µM)	MIC [14]: > 100 µg/mL; MIC [15]: > 100 µg/mL; MIC [16]: > 100 µg/mL; MIC [17]: > 100 µg/mL; MIC [18]: > 100 µg/mL; MIC [19]: > 100 µg/mL; MIC (CANDIDA ALBICANS CCH 442): > 100 µg/mL; MIC (PSEUDOMONAS CEPACIA 296I): > 100 µg/mL; MIC [20]: 0.01 µg/mL (≈ 0.0122 µM); MIC (ESCHERICHIA COLI SS): 1.56 µg/mL (≈ 1.9 µM); MIC [21]: 0.2 µg/mL (≈ 0.243 µM); MIC (ESCHERICHIA COLI JUHL): 50 µg/mL (≈ 60.8 µM); MIC [22]: 0.2 µg/mL (≈ 0.243 µM)
CC[C@H]1OC(=O)[C@H](C)C(=O)[C@H](C)[C@@H](O[C@@H]2O[C@H](C)C[C@H](N(C)C)[C@H]2O)[C@](C)(OC)C[C@@H](C)C2=NCC(COC(=O)c3cc4ccccc4n3C)N3C(=O)O[C@@]1(C)[C@H]3[C@H]2C (stereo partly drawn) [Example 143]	0.2 µg/mL (≈ 0.242 µM)	0.2 µg/mL (≈ 0.242 µM)	0.2 µg/mL (≈ 0.242 µM)	50 µg/mL (≈ 60.6 µM)	> 100 µg/mL	> 100 µg/mL	0.02 µg/mL (≈ 0.0242 µM)	0.01 µg/mL (≈ 0.0121 µM)	0.02 µg/mL (≈ 0.0242 µM)	0.2 µg/mL (≈ 0.242 µM)	50 µg/mL (≈ 60.6 µM)	> 100 µg/mL	> 100 µg/mL	0.39 µg/mL (≈ 0.473 µM)	0.2 µg/mL (≈ 0.242 µM)	0.01 µg/mL (≈ 0.0121 µM)	25 µg/mL (≈ 30.3 µM)	1.56 µg/mL (≈ 1.89 µM)	50 µg/mL (≈ 60.6 µM)	0.1 µg/mL (≈ 0.121 µM)	MIC [14]: 50 µg/mL (≈ 60.6 µM); MIC [15]: > 100 µg/mL; MIC [16]: > 100 µg/mL; MIC [17]: 50 µg/mL (≈ 60.6 µM); MIC [18]: > 100 µg/mL; MIC [19]: > 100 µg/mL; MIC (CANDIDA ALBICANS CCH 442): 100 µg/mL (≈ 121 µM); MIC (PSEUDOMONAS CEPACIA 296I): 50 µg/mL (≈ 60.6 µM); MIC [20]: 0.02 µg/mL (≈ 0.0242 µM); MIC (ESCHERICHIA COLI SS): 0.78 µg/mL (≈ 0.945 µM); MIC [21]: 0.2 µg/mL (≈ 0.242 µM); MIC (ESCHERICHIA COLI JUHL): 50 µg/mL (≈ 60.6 µM); MIC [22]: 0.2 µg/mL (≈ 0.242 µM)
CC[C@H]1OC(=O)[C@H](C)C(=O)[C@H](C)[C@@H](O[C@@H]2O[C@H](C)C[C@H](N(C)C)[C@H]2O)[C@](C)(OC)C[C@@H](C)C2=NCC(COC(=O)c3cccc4[nH]ccc34)N3C(=O)O[C@@]1(C)[C@H]3[C@H]2C (stereo partly drawn) [Example 144]	0.1 µg/mL (≈ 0.123 µM)	1.56 µg/mL (≈ 1.92 µM)	0.1 µg/mL (≈ 0.123 µM)	50 µg/mL (≈ 61.7 µM)	> 100 µg/mL	> 100 µg/mL	≤ 0.005 µg/mL	0.01 µg/mL (≈ 0.0123 µM)	0.1 µg/mL (≈ 0.123 µM)	0.1 µg/mL (≈ 0.123 µM)	100 µg/mL (≈ 123 µM)	100 µg/mL (≈ 123 µM)	> 100 µg/mL	0.39 µg/mL (≈ 0.481 µM)	0.1 µg/mL (≈ 0.123 µM)	≤ 0.005 µg/mL	50 µg/mL (≈ 61.7 µM)	0.78 µg/mL (≈ 0.962 µM)	50 µg/mL (≈ 61.7 µM)	0.1 µg/mL (≈ 0.123 µM)	MIC [14]: > 100 µg/mL; MIC [15]: 100 µg/mL (≈ 123 µM); MIC [16]: > 100 µg/mL; MIC [17]: > 100 µg/mL; MIC [18]: > 100 µg/mL; MIC [19]: > 100 µg/mL; MIC (CANDIDA ALBICANS CCH 442): > 100 µg/mL; MIC (PSEUDOMONAS CEPACIA 296I): 50 µg/mL (≈ 61.7 µM); MIC [20]: ≤ 0.005 µg/mL; MIC (ESCHERICHIA COLI SS): 0.78 µg/mL (≈ 0.962 µM); MIC [21]: 0.1 µg/mL (≈ 0.123 µM); MIC (ESCHERICHIA COLI JUHL): 50 µg/mL (≈ 61.7 µM); MIC [22]: 0.1 µg/mL (≈ 0.123 µM)
